Experimental findings from patent US12606552B2, “Bifunctional compound, preparation method therefor, and use thereof” (SUZHOU KINTOR PHARMACEUTICALS, INC., priority 2020, dated 2026) are described below.

Some results are limits rather than exact numbers.

Data set [1] is described as follows: Distribution of compounds in sebaceous glands and blood in golden hamsters. It counts as in vivo. The settings on record: for mean drug concentration in sebaceous glands: after 8 h. The protocol:
Activity Assay Example 9: Distribution of Compounds in Sebaceous Glands and Blood in Golden Hamsters
6 male golden hamsters were selected for the experiment and divided into two groups (three in each group). The drug was administered by a single smear route. All animals fasted overnight before administration.
1.1 Experimental Method 1.1.1 Dosage of Administration
A46 was weighed into a 50 ml centrifuge tube, added with mixed solvent (75% ethanol, 15% glyceryl tri(2-ethylhexanoate) and 10% glycerol), vortexed and heated at 60° C. until A46 was completely dissolved. A46 was prepared at a concentration of 30 mg/mL, 100 mg/mL, and stored at room temperature in the dark.
In group 1, the dosage for smear administration was 1.2 mg, corresponding to an administration volume of 30 mL/kg. In group 2, the dosage for smear administration was 4 mg, and the administration volume was 100 mL/kg.
1.1.2 Method of Administration
During the experiment, the 2 sebaceous glands of all the hamsters were coated with the corresponding medicinal solution (the dosage was about 0.02 mL).
1.1.3 Observation of Animal Status
Immediately after administration, whether the animals have abnormal reactions was observed. If there were no abnormal reactions, the animals were observed twice during the experiment. If any abnormal reactions were found, the number of observations was recorded and increased in time until the animals returned to normal, or the experiment ended.
1.1.4 Sample Collection and Storage
All experimental animals were fasted overnight before administration, and blood was collected at corresponding time points into blood collection tubes containing heparin sodium anticoagulant after administration. After collection of whole blood, the blood collection tube was immediately shook gently and placed on ice, then centrifuged (4° C., 4000 rpm, 10 min) to collect the supernatant plasma sample (plasma volume ≥100 μL), and the supernatant plasma sample was stored at −80° C. before analysis. Plasma sample was collected for 8 h.

Data set [2] has as its system flank sebaceous glands of golden hamster. Kind of data set: In vivo efficacy on acne in female golden hamsters (growth of sebaceous plaques induced by testosterone propionate). Particulars: skin smear once a day, 21 days. The source says: Activity Assay Example 7: In Vivo Efficacy of Compounds on Acne in Female Golden Hamsters
1. Test object: The flank sebaceous glands of golden hamster are androgen-dependent organs, and testosterone propionate (male hormone) promotes the enlargement of sebaceous glands. This experiment is mainly to study the inhibitory effect of CB-03-01 (positive drug), Flutamide (positive drug) and the compound on sebaceous gland enlargement in female golden hamster acne model (androgen dependence), to further observe the in vivo drug efficacy of the compound, to provide the basis for clinical trials of androgen-induced acne symptoms.
Androgen (Testosterone Propionate-TP); CB-03-01 (Clascoterone, CAS No. 19608-29-8); □ Flutamide (Flutamide, CAS No. 13311-84-7); compound A46 of the present invention.
2.2 Experimental Animals, See Table 4 for Details
2.3 Administration Vehicle: Acetone. 3. Experimental Design
In this experiment, from 72 female golden hamsters, according to the size and body weight of sebaceous glands, golden hamsters were evenly distributed to each group, 6 mice per group, a total of 7 groups, and they were administered continuously for 21 days.
According to the protocol in the table, […] of drug was administered each time, it was evenly smeared on the sebaceous glands, and administered once a day.
Animal grouping and status observation: Before grouping, the body weight was weighed, and the sebaceous glands on both sides were shaved for the observation of the size of sebaceous glands. Animals were observed twice a day in the morning and afternoon during the administration period. On the 21st day after administration, the size of sebaceous glands and the body weight of animals were observed and recorded.
The size of the sebaceous glands is expressed by the area, and the vernier caliper recorded its long side (a) and short side (b), and the area of the sebaceous glands (S) is obtained from the formula for calculating the area of a rectangle. In model group and administration group, ΔS=S−S(vehicle). Growth inhibition rate (%)=(ΔS(acetone testosterone group)−ΔS (administration group))/ΔS(acetone testosterone group)*100%.

`Cc1ncsc1-c1ccc(CNC(=O)[C@@H]2C[C@@H](O)CN2C(=O)[C@@H](NC(=O)COCCCCOc2ccc(-c3ccc(N4C(=S)N(c5ccc(C#N)c(C(F)(F)F)c5F)C(=O)C4(C)C)cn3)cc2)C(C)(C)C)cc1` [Compound A46]: the “mean drug concentration in sebaceous glands” value in data set [1] (group 1, single smear 1.2 mg (30 mg/mL)) stood at 13513 ng/mL; in data set [1] (group 2, single smear 4 mg (100 mg/mL)), 24223 ng/mL. This compound returned a maximum blood concentration in data set [1] (group 2, single smear 4 mg (100 mg/mL), one out of 3 animals, sampling 0.25-8 h) of 10.6 ng/mL. Moreover, the “blood concentration (below the detection limit)” value in data set [1] (group 2, single smear 4 mg (100 mg/mL), remaining 2 animals, sampling 0.25-8 h) was under 2 ng/mL. Also, the “The inhibition rate of the growth of sebaceous plaques (%)” value in data set [2] (100 μg (0.4%) + testosterone propionate 12 μg) is given as 19.24%; in data set [2] (200 μg (0.8%) + testosterone propionate 12 μg), 35.20%; in data set [2] (400 μg (1.6%) + testosterone propionate 12 μg), 49.54%; in data set [2] (800 μg (3.2%) + testosterone propionate 12 μg) it was 51.61%.
